Values quoted from earlier work in patent US20220257649A1, “COMBINATION THERAPIES FOR MULTIPLE MYELOMA” (NantCell, Inc., priority 2018, published 2022).

What was measured:
multiple myeloma = settings: for rate of nearly complete response (CR): in combination with dexamethasone, induction therapy before ASCT; for rate of nearly CR: three-drug induction schedule: bortezomib-dexamethasone plus the named drug
[1] = tested on: primary multiple myeloma cells; settings: in the presence of peripheral lymphocytes
[2] = tested on: relapsed or refractory multiple myeloma; settings: alone, with bortezomib, or with lenalidomide and low-dose dexamethasone
IL-2Rβγ = target: T1, IL-2Rβγ (Homo sapiens, UniProt P14784+P31785); settings: IL-15 mutant
T1 sequence (P14784 27-551): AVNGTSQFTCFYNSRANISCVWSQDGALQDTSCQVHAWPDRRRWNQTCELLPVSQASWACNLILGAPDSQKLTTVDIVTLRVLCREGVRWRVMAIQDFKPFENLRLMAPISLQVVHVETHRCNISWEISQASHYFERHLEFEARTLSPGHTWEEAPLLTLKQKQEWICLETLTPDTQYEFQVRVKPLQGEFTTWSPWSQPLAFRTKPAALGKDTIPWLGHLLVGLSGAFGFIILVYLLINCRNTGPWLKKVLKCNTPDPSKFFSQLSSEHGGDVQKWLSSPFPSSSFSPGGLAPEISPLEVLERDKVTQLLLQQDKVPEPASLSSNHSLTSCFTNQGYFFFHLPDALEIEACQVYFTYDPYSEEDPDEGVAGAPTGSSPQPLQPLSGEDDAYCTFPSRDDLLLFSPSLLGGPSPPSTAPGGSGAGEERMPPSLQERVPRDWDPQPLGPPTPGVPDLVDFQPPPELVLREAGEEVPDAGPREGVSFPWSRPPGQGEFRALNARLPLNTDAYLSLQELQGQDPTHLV
T1 sequence (P31785 23-369): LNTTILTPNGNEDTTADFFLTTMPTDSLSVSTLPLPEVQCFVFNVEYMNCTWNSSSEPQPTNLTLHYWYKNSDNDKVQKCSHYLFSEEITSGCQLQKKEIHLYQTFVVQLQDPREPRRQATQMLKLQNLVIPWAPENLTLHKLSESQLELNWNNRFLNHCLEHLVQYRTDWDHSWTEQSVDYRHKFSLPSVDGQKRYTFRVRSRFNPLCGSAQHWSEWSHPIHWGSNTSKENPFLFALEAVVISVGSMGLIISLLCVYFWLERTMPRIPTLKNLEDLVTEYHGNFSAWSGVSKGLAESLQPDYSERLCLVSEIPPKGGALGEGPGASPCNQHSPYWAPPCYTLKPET

[3] = following i.v. administration in mice
[4] = tested on: aggressive solid and hematological tumor models
IL-15 activity = settings: in vitro and in vivo

## O=C1CCC(N2C(=O)c3ccccc3C2=O)C(=O)N1 (stereo not drawn) [Thalidomide]
Multiple myeloma
  rate of nearly complete response (CR): 8%
  rate of nearly CR: 32%

## CC(C)C[C@H](NC(=O)[C@H](Cc1ccccc1)NC(=O)c1cnccn1)B(O)O [bortezomib]
Multiple myeloma
  rate of nearly complete response (CR): 16%

## O=P1(N(CCCl)CCCl)NCCCO1 (stereo not drawn) [cyclophosphamide]
Multiple myeloma
  rate of nearly CR: 39%

## COc1cccc2c1C(=O)c1c(O)c3c(c(O)c1C2=O)C[C@@](O)(C(=O)CO)C[C@@H]3O[C@H]1C[C@H](N)[C@H](O)[C@H](C)O1 [doxorubicin]
Multiple myeloma
  rate of nearly CR: 7%

## Nc1cccc2c1CN(C1CCC(=O)NC1=O)C2=O (stereo not drawn) [lenalidomide]
Multiple myeloma
  rate of nearly complete response (CR): 15%
  rate of nearly CR: 57%

## Elotuzumab: humanized monoclonal IgG1 antibody directed against CS-1
[1]
  antibody-dependent cellular cytotoxicity (ADCC): significant antibody-dependent cellular cytotoxicity (ADCC)
[2]
  activity: encouraging activity
  safety profile: manageable safety profile

## IL-15N72D: IL-15 mutant with increased ability to bind IL-2Rβγ; component of N-803
IL-2Rβγ
  ability to bind IL-2Rβγ: increased ability to bind IL-2Rβγ

## N-803: IL-15 super agonist complex: IL-15 mutant (IL-15N72D) bound to an IL-15 receptor α/IgG1 Fc fusion protein
[3]
  half-life: 25 h
[4]; aggressive solid and hematological tumor models, immunocompetent mice
  anti-tumor activity: impressive anti-tumor activity
[4]; mice cured after N-803 treatment
  resistance of cured tumor-bearing mice to re-challenge with the same tumor cells: highly resistant to re- challenge
IL-15 activity
  IL-15 activity: highly potent IL-15 activity
